Source: BindingDB's records for doi:10.1016/j.bmcl.2017.07.010 (De Montfort University, 2017)

Experiment: Inhibition of human CYP1B1 transfected in HEK293 cells assessed as cisplatin EC50 at 6 times IC50 by MTT assay (Rvb = 65 uM)

| SMILES | EC50 |
| --- | --- |
| COc1ccccc1/C=C/C(=O)c1ccc[nH]1 | 10 µM |
| O=C(/C=C/c1ccccc1Cl)c1ccc[nH]1 | 10 µM |
